Results on 8 compounds are retold here after paper PMC13114161 (Antibiotics, 2026).

Like-named read-outs stand apart in the source and are kept apart here.

Data set [1] has as its system P. aeruginosa ATCC 27853. Put plainly: Intracellular ATP levels. To be noted: three hours post-treatment. It is filed as cell-based, Pseudomonas aeruginosa. The method, then:
Further, a deviation from normal membrane function can affect the activity of respiratory components and diminish ATP synthesis. Thus, an indirect approach to assess a drug’s membrane effect is by monitoring cellular ATP levels after treatment. To exclude ATP depletion as a TXA11114 MoA, bacterial ATP levels were evaluated three hours post-treatment. […] Azithromycin was used as a negative control.
P. aeruginosa intracellular ATP levels were determined as described previously using an ATP determination kit (Invitrogen, Life Technologies, Carlsbad, CA, USA). Bacterial culture strain ATCC 27853 was grown to the mid-log phase (OD600 = 0.7), washed, and resuspended in the same volume of PBSM (1X PBS, 1mM MgCl2). […] After treatment, the cells were lysed in chloroform which was subsequently removed by boiling at 80 °C. The persistent ATP from cell lysate was measured in a 96-well black flat-bottom plate by measuring the luminescence. Luminescence was converted to concentration from standard curve. […] Error bars represent the standard deviation of triplicates.

The subject of data set [2] is P. aeruginosa ATCC 27853. Put plainly: Membrane polarization assay DiOC2(3). Format: cell-based, Pseudomonas aeruginosa. To be noted: Pseudomonas aeruginosa, ATCC27853; positive control; read-out: IC50 (membrane potential, DiOC2(3)). How it is done:
RND efflux pumps require an intact proton motive force across the inner membrane to mediate drug efflux. Accordingly, collapse of the membrane potential could indirectly disable efflux activity and result in apparent antibiotic potentiation. To determine whether TXA11114 dissipates the membrane potential of P. aeruginosa, membrane polarization was assessed using the fluorescent probe 3,3′-diethyloxacarbocyanine iodide (DiOC2(3)). DiOC2(3) accumulates in cells with polarized membranes, undergoing a concentration-dependent shift from green to red fluorescence due to dye stacking; membrane depolarization prevents this shift. […] CCCP and azithromycin were included as positive and negative controls, respectively. […] This discrepancy likely reflects a methodological limitation of the DiOC2(3) assay in Gram-negative bacteria. Specifically, EDTA treatment is required to transiently permeabilize the outer membrane to permit DiOC2(3) access to the cytoplasmic membrane (see Methods). While necessary for probe uptake, EDTA can sensitize cells to secondary perturbations and may exaggerate subtle fluorescence changes at supraphysiological compound concentrations.
P. aeruginosa membrane polarization assays were conducted as described previously using strain ATCC 27853. Briefly, mid-exponential phase (OD600 of 0.5) P. aeruginosa was pelleted by centrifugation at 3000× g for 10 min at room temperature. Cells were then resuspended in 1× PBS, treated with 10 mM EDTA for 5 min and then centrifuged at 300× g for 10 min to remove EDTA. EDTA-treated cells were pelleted and resuspended to an OD600 of 1.0 in assay resuspension buffer. A 6 mM DiOC2(3) stock in DMSO was added to cells for a final concentration of 30 µM. DiOC2(3)-loaded cells were then added to a 96-well black bottom microplate for a final volume of 200 µL. […] After 15 min incubation at 37 °C in dark, DiOC2(3) fluorescence was recorded using the SpectraMax iD5 spectrophotometer (Molecular Devices, San Jose, CA, USA) using 450 nm excitation. Red fluorescence intensity was recorded at 670 nm emission.

In data set [3] the test system is P. aeruginosa K1119 (∆mexAB-oprM). The data set can be described thus: Antibiotic MIC potentiation in efflux mutants. Format: cell-based, Pseudomonas aeruginosa. How it is done:
(§1) Next, the ability of TXA11114 to inhibit P. aeruginosa mutants overexpressing MexAB-OprM was evaluated. Loss of function mutations in nalB resulting in the overexpression of MexAB-OprM have been identified in P. aeruginosa clinical isolates and are associated with resistance to cephalosporins, fluoroquinolones and aminoglycosides. In theory, an EPI should reverse the antimicrobial susceptibility lost in bacteria-overexpressing efflux pumps. Thus, the TXA11114 EPI activity was studied using antibiotics that display efflux liabilities in this RND efflux pump (Table 5).
(§2) MIC assays for potentiation of antimicrobial activity against P. aeruginosa were performed as described previously.

For another data set, the system named is P. aeruginosa K767 (WT). The data set can be described thus: Antibiotic MIC potentiation in efflux mutants. It is filed as cell-based, Pseudomonas aeruginosa. How it is done: as §1, §2
Data set [4] relates to P. aeruginosa K1455 (↑mexAB-oprM). The data set can be described thus: Antibiotic MIC potentiation in efflux mutants. It is filed as cell-based, Pseudomonas aeruginosa. How it is done:
as §1, §2

In data set [5] the test system is P. aeruginosa. Put plainly: MIC potentiation of antimicrobial agents by EPIs.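 As to Fold difference of antibiotic MIC + TXA01182: TXA01182 tested at 6.25 µg/mL.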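 As to Fold difference of antibiotic MIC + TXA09155: TXA09155 tested at 6.25 µg/mL.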 As to Fold difference of antibiotic MIC + TXA11114: TXA11114 at 6.25 µg/mL.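 As to MIC of antibiotic + TXA01182: TXA01182 tested at 6.25 µg/mL.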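 As to MIC of antibiotic + TXA09155: TXA09155 tested at 6.25 µg/mL.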 As to MIC of antibiotic + TXA11114: TXA11114 at 6.25 µg/mL. It is filed as cell-based, Pseudomonas aeruginosa. The note with it: for Fold difference of antibiotic MIC + TXA01182 / MIC of antibiotic + TXA01182: TXA01182 at […]; for Fold difference of antibiotic MIC + TXA09155 / MIC of antibiotic + TXA09155: TXA09155 at […]; for Fold difference of antibiotic MIC + TXA11114 / MIC of antibiotic + TXA11114: TXA11114 at […]. How it is done: In contrast, the activities of gentamicin and imipenem were unchanged in the presence of TXA11114 under the conditions tested. Although gentamicin can be transported by the MexXY efflux system, the absence of potentiation in this assay is not sufficient to draw conclusions regarding MexXY inhibition or overall efflux specificity.
as §2

In data set [6] the test system is P. aeruginosa ATCC 27853 ompH mutants EPIR32, EPIR36, EPIR38. Put plainly: microbe, parasite or virus in culture. It is filed as cell-based, Pseudomonas aeruginosa. How it is done: as §2
For data set [7], the system named is P. aeruginosa ATCC 27853. The data set can be described thus: MIC and levofloxacin potentiation (broth microdilution). Format: cell-based, Pseudomonas aeruginosa. How it is done:
Once synthesized, the three fluorinated EPI analogs (TXA11114, TXA11164 and TXA12027) were first assayed for their antibacterial activities against P. aeruginosa ATCC 27853. They had MICs of 100, >200 and 100 µg/mL, respectively (Table 1). […] Particularly, the inactivity of TXA11164 was surprising as the pKa values of both the amines are similar to that in TXA11114.
as §2
On the technique in general: Broth dilution looks for growth in wells or tubes with falling amounts of substance.

Another data set in a line: in vivo. The note with it: female, CD-1, mouse, iv. The method, then:
Thus, the safety and tolerability of TXA11114 was determined to find an optimum dosing capability. The maximum tolerated dose (MTD) of TXA11114 was assessed in female mice (CD-1, 6–8 weeks old) at the University of North Texas Health Science Center (UNTHSC). TXA11114 was administered IV to groups of three female mice. Mice were administered TXA11114 in the range 30–240 mg/kg (IV bolus). […] As doses are tolerated (not resulting in effects such as mortality, convulsions, or other severe morbidity), they are increased. Survival and general observations as to the tolerability of the administered dose started immediately and continued for a period of 48 h after each dose was recorded.

Data set [8] concerns P. aeruginosa ATCC 27853. Put plainly: Neutropenic murine thigh infection model. Format: in vivo, CD-1 mice. To be noted: thigh or lung infection models. The method, then: Female CD-1 mice (6–8 weeks old; 22 ± 2 g) were obtained from Envigo Laboratories, quarantined for at least 3 days, and housed 5 per cage in accordance with the approved IACUC protocol (IACUC-2017-0049). Neutropenia was induced by intraperitoneal (IP) administration of cyclophosphamide (Cytoxan) at 150 mg/kg on day 4 and 100 mg/kg on day 1 prior to infection.
Mice were infected intramuscularly (IM) in the right thigh with 0.1 mL of bacterial suspension containing approximately 1 × 10^5–10^6 CFU/mL. […] At 2 h or 24 h post-infection, mice were euthanized by CO2 asphyxiation, and thighs were aseptically excised and placed in 2 mL sterile phosphate-buffered saline (PBS) on ice. Tissue homogenization was performed using a Polytron PT10-35 (12 mm aggregate, Kinematica, Malters, Switzerland).
Plates were incubated overnight at 37 °C, and colonies were enumerated the following day.

The test system of data set [9] is P. aeruginosa. Also on record: method as in PMID 35052908, PMID 35740123. The note with it: against P. aeruginosa; cited from earlier work.
The mark [10] stands for this setting: Pseudomonas aeruginosa, ATCC27853, EPIR32.
The mark [11] stands for this setting: Pseudomonas aeruginosa, ATCC27853, EPIR38.
The mark [12] stands for this setting: ATCC 27853 parent strain (Table S1).
The mark [13] stands for this setting: Pseudomonas aeruginosa, ATCC27853, EPIR36.

On to `N#CC(C#N)=NNc1cccc(Cl)c1` [CCCP, carbonyl cyanide 3-chlorophenylhydrazone], for which, in the data set on P. aeruginosa ATCC 27853 [1], the “Cellular ATP level” value was “significant depletion of ATP”. For the same compound, the IC50 in the data set with P. aeruginosa ATCC 27853 [2] was determined as 17 nM.

As for `CO/N=C(\C(=O)N[C@@H]1C(=O)N2C(C(=O)[O-])=C(C[N+]3(C)CCCC3)CS[C@H]12)c1csc(N)n1` [Cefepime], the “MIC Ratio of Antibiotics Alone/(Antibiotics + […] TXA11114)” value (from here on “MIC Ratio”) in data set [3] was found to be 2. Also, the “MIC Ratio” value in the data set on P. aeruginosa K767 (WT) is recorded as 8. Also, the “MIC Ratio” value in data set [4] is given as 16. In the data set on P. aeruginosa [5], the “Fold difference of antibiotic MIC + TXA01182” value was 2 fold, the “MIC of antibiotic + TXA01182” value was 1 µg/mL, the “Fold difference of antibiotic MIC + TXA09155” value is given as 4 fold and the “MIC of antibiotic + TXA09155” value amounted to 0.5 µg/mL. For the same compound, in the data set on P. aeruginosa [5], the “Fold difference of antibiotic MIC + TXA11114” value amounted to 4 fold and the “MIC of antibiotic + TXA11114” value amounted to 0.5 µg/mL.

In the case of `CC(C)(O/N=C(\C(=O)N[C@@H]1C(=O)N2C(C(=O)[O-])=C(C[n+]3ccccc3)CS[C@H]12)c1csc(N)n1)C(=O)O` [Ceftazidime, ceftazidime], the MIC was found to be 0.25 µg/mL in data set [6] (setting [10]), 2 µg/mL in data set [6] (setting [11]) and 2 µg/mL in the data set with P. aeruginosa ATCC 27853 [7] (setting [12]). Moreover, the “MIC of antibiotic + TXA01182” value in the data set with P. aeruginosa [5] came out at 1 µg/mL. The “MIC of antibiotic + TXA11114” value in the data set on P. aeruginosa [5] was determined as 0.5 µg/mL.

As for `C[C@@H](O)[C@H]1C(=O)N2C(C(=O)O)=C(SCCN=CN)C[C@H]12` [Imipenem], the “MIC Ratio” value in [3] amounted to 1. Further, in the data set on P. aeruginosa K767 (WT), the “MIC Ratio” value is on record as 1. Also, the “MIC Ratio” value in data set [4] is on record as 1. Besides, in the data set on P. aeruginosa [5], the “Fold difference of antibiotic MIC + TXA01182” value came to 1 fold, the “MIC of antibiotic + TXA01182” value is 4 µg/mL, the “Fold difference of antibiotic MIC + TXA09155” value is given as 1 fold and the “MIC of antibiotic + TXA09155” value came out at 4 µg/mL. In the data set with P. aeruginosa [5], the “Fold difference of antibiotic MIC + TXA11114” value is recorded as 1 fold and the “MIC of antibiotic + TXA11114” value was found to be 4 µg/mL. For the same compound, the “Fold difference of antibiotic MIC + TXA11114” value with P. aeruginosa [5] (listed as imipenem) was “unchanged”.

As to `C[C@@H](O)[C@H]1C(=O)N2C(C(=O)O)=C(S[C@@H]3CN[C@H](C(=O)N(C)C)C3)[C@H](C)[C@H]12` [MEM, meropenem], the MIC in data set [6] (setting [10]) was 0.125 µg/mL; in [6] (setting [13]), 0.125 µg/mL; in data set [6] (setting [11]), 0.5 µg/mL; in the data set on P. aeruginosa ATCC 27853 [7] (Pseudomonas aeruginosa, ATCC27853, ATCC 27853 parent strain (Table S1), read-out: MIC), 1 µg/mL.

Turning to `CN(C)c1cc(NC(=O)CNC(C)(C)C)c(O)c2c1C[C@H]1C[C@H]3[C@H](N(C)C)C(O)=C(C(N)=O)C(=O)[C@@]3(O)C(O)=C1C2=O` [TGC, tigecycline], the MIC turned out to be 2 µg/mL in [6] (setting [10]), 2 µg/mL in [6] (setting [13]), 8 µg/mL in [6] (setting [11]) and 8 µg/mL in the data set with P. aeruginosa ATCC 27853 [7] (setting [12]).

`NCCC[C@@H](N)CNC(=O)c1cc2ccc(-c3ccc(F)cc3)cc2[nH]1` [TXA01182] gave an MTD at 48 h in the data set “in vivo” of 12.5 mg/kg. In addition, the “Improvement of levofloxacin efficacy in murine thigh or lung infection models” value with P. aeruginosa ATCC 27853 [8] is reported as “neither TXA01182 nor TXA09155 improved levofloxacin efficacy”. The “Fold MIC reduction [LVX/EPI-LVX]” value with P. aeruginosa ATCC 27853 [7] (EPI at […], ATCC 27853) is 8 fold. In the data set on P. aeruginosa ATCC 27853 [7] (Pseudomonas aeruginosa, ATCC27853, EPI alone, ATCC 27853, read-out: EPI MIC), the MIC was 100 µg/mL. The LVX MIC (+EPI) in the data set with P. aeruginosa ATCC 27853 [7] (levofloxacin MIC with EPI at […], ATCC 27853) is 0.125 µg/mL. For the same compound, the “Lowest concentration enhancing activity of monobactams, fluoroquinolones, sulfonamides and tetracyclines” value in the data set on P. aeruginosa [9] is 6.25 µg/mL.

For the compound polymyxin B [PMB], the MIC in [6] (EPIR32) was determined as 4 µg/mL; in data set [6] (EPIR36), 4 µg/mL; in data set [6] (EPIR38) it was 4 µg/mL; in the data set on P. aeruginosa ATCC 27853 [7] (setting [12]), 2 µg/mL.

One may read the IC50 as the concentration that inhibits the measured activity by half.
